This test concerns MCH receptors. Kind of test: MCH receptor activity class (method not given).
Where [1] appears, read: class 1-3 by percent of control at 10^-7 M or IC50.
The mark [2] stands for this setting: class by percent of control at 10^−7 M or IC50.
[3] abbreviates: class by percent of control at 10^-7 M or IC50.
The mark [4] stands for this setting: activity class per percent of control at 10^-7 M or IC50.
The mark [5] stands for this setting: MCH receptor activity class 1-3 (percent of control at 10^-7 M or IC50).
Setting [6] is: activity class 1-3: percent of control at 10^-7 M or IC50.

Data on 34 compounds can be found in patent publication US20050197350A1, “Novel quinoline, tetrahydroquinazoline, and pyrimidine derivatives and methods of treatment related to the use thereof” (TAISHO PHARMACEUTICAL CO., LTD., priority 2003, published 2005).

Molecules are shown by their SMILES.

Consider `CN(C)c1nc(N[C@H]2CC[C@@H](NC(=O)C(c3ccccc3)c3ccccc3)CC2)nc2c1CCCC2` [compound 468], for which, under setting [1], the class was 1 (Class 1: The value of percent of control at 10^−7 M was less than 40% or the value of IC50 was less than 50 nM.). Consider `Cc1cc(N(C)C)nc(N[C@H]2CC[C@@H](C(=O)NCc3cc(Cl)cc(Cl)c3)CC2)n1` [compound 2810, cis-N-(3,5-dichlorobenzyl)-4-{[4-(dimethylamino)-6-methylpyrimidin-2-yl]amino}cyclohexanecarboxamide], for which the class under setting [2] is on record as 1 (Class 1: The value of percent of control at 10^−7 M was less than 40% or the value of IC50 was less than 50 nM.). Consider `COc1ccc(Br)c(C(=O)N[C@H]2CC[C@@H](Nc3nc4c(c(N(C)C)n3)CCCC4)CC2)c1` [compound 557], for which the class under setting [1] is 3 (Class 3 The value of percent of control at 10^−7 M was more than 60% or the value of IC50 was more than 200 nM.). Take `Cc1cnc(NC[C@H]2CC[C@@H](NC(=O)c3cc(C(F)(F)F)cc(C(F)(F)F)c3)CC2)nc1N(C)C` [compound 2731, N-[cis-4-({[4-(dimethylamino)-5-methylpyrimidin-2-yl]amino}methyl)cyclohexyl]-3,5-bis(trifluoromethyl)benzamide]: under setting [2], the class is on record as 2 (Class 2: The value of percent of control at 10^−7 M was from 40% to 60% or the value of IC′50 was from 50 nM to 200 nM.). Consider `CCc1cccc(C)c1NC(=S)N[C@H]1CC[C@@H](Nc2nc3c(c(N(C)C)n2)CCCC3)CC1` [compound 1760], for which the class under setting [3] is 3 (Class 3 The value of percent of control at 10^−7 M was more than 60% or the value of IC50 was more than 200 nM.).

For `COc1cccc(NC(=O)[C@H]2CC[C@@H](Nc3ncc(C)c(N(C)C)n3)CC2)c1` [compound 2787, cis-4-{[4-(dimethylamino)-5-methylpyrimidin-2-yl]amino}-N-(3-methoxyphenyl)cyclohexanecarboxamide], under setting [2], the class is 1 (Class 1: The value of percent of control at 10^−7 M was less than 40% or the value of IC50 was less than 50 nM.). With `COc1cccc2cc(C(=O)N[C@H]3CC[C@@H](Nc4nc5c(c(N(C)C)n4)CCCC5)CC3)oc12` [compound 1057], under setting [4], the class is 3 (Class 3 The value of percent of control at 10^−7 M was more than 60% or the value of IC50 was more than 200 nM.).

On to `CN(C)c1ccnc(N[C@H]2CC[C@@H](CNC(=O)NC(c3ccccc3)c3ccccc3)CC2)n1` [compound 2435, N-[(cis-4-{[4-(dimethylamino)pyrimidin-2-yl]amino}cyclohexyl)methyl]-N′-(diphenylmethyl)urea], for which the class under setting [5] was 1 (Class 1: The value of percent of control at 10^−7 M was less than 40% or the value of IC50 was less than 50 nM.). As for `CCOc1ccc2ccccc2c1C(=O)N[C@H]1CC[C@@H](Nc2nc3c(c(N(C)C)n2)CCCC3)CC1` [compound 565], the class under setting [1] is 3 (Class 3 The value of percent of control at 10^−7 M was more than 60% or the value of IC50 was more than 200 nM.). For `COc1ccc(CN[C@H]2CC[C@@H](Nc3cc(N(C)C)c4ccccc4n3)CC2)c(OC)c1` [compound 1094], the class under setting [4] is 3 (Class 3 The value of percent of control at 10^−7 M was more than 60% or the value of IC50 was more than 200 nM.). On to `CCCCCCCCOC(=O)N[C@H]1CC[C@@H](Nc2nccc(N(C)C)n2)CC1` [compound 1626], for which the class under setting [6] is on record as 3 (Class 3 The value of percent of control at 10^−7 M was more than 60% or the value of IC50 was more than 200 nM.). Regarding `COc1cccc(OC)c1CNC[C@H]1CC[C@@H](Nc2nccc(N(C)C)n2)CC1` [compound 1243], the class under setting [3] is 2 (Class 2: The value of percent of control at 10^−7 M was from 40% to 60% or the value of IC′50 was from 50 nM to 200 nM.). For `CN(C)c1nc(N[C@H]2CC[C@@H](CNC(=O)Nc3ccc(F)cc3)CC2)nc2c1CCCC2` [compound 2456], the class under setting [5] is on record as 2 (Class 2: The value of percent of control at 10^−7 M was from 40% to 60% or the value of IC′50 was from 50 nM to 200 nM.).

Consider `CN(C)c1ccnc(N[C@H]2CC[C@@H](CNCc3ccc4c(c3)OCO4)CC2)n1` [compound 1303], for which the class under setting [3] was 3 (Class 3 The value of percent of control at 10^−7 M was more than 60% or the value of IC50 was more than 200 nM.). With `CCCCNC(=O)N[C@H]1CC[C@@H](Nc2cc(N(C)C)c3ccccc3n2)CC1` [compound 2125], the class under setting [3] is listed as 3 (Class 3 The value of percent of control at 10^−7 M was more than 60% or the value of IC50 was more than 200 nM.). Still for that read-out and setting: as for `CN(C)c1cc(N[C@H]2CC[C@@H](NC(=O)Cc3ccc(Cl)c(Cl)c3)CC2)nc2ccccc12` [compound 699], the figure is 3 (Class 3 The value of percent of control at 10^−7 M was more than 60% or the value of IC50 was more than 200 nM.).

Consider `Cc1cc(CN[C@H]2CC[C@@H](Nc3nccc(N(C)C)n3)CC2)cc(C)c1O` [compound 1223], for which the class under setting [3] is 3 (Class 3 The value of percent of control at 10^−7 M was more than 60% or the value of IC50 was more than 200 nM.). Still for that read-out and setting: as for `CN(C)c1ccnc(N[C@H]2CC[C@@H](CNC(=O)c3ccc(Cl)c([N+](=O)[O-])c3)CC2)n1` [compound 372], the figure is 2 (Class 2: The value of percent of control at 10^−7 M was from 40% to 60% or the value of IC′50 was from 50 nM to 200 nM.); as for `CN(C)c1ccnc(N[C@H]2CC[C@@H](CNC(=O)C(c3ccccc3)c3ccccc3)CC2)n1` [compound 377, N-[(cis-4-{[4-(dimethylamino)pyrimidin-2-yl]amino}cyclohexyl)methyl]-2,2-diphenylacetamide], 1 (Class 1: The value of percent of control at 10^−7 M was less than 40% or the value of IC50 was less than 50 nM.); as for `CN(C)c1nc(N[C@H]2CC[C@@H](NC(=O)Nc3ccc(Br)cc3)CC2)nc2c1CCCC2` [compound 1813], 3 (Class 3 The value of percent of control at 10^−7 M was more than 60% or the value of IC50 was more than 200 nM.). As for `COc1ccc(NC(=O)N[C@H]2CC[C@@H](Nc3nc4c(c(N(C)C)n3)CCCC4)CC2)cc1Cl` [compound 1721], the class under setting [3] is recorded as 3 (Class 3 The value of percent of control at 10^−7 M was more than 60% or the value of IC50 was more than 200 nM.). The same measure, in the same setting: then `COc1cccc(CNC[C@H]2CC[C@@H](Nc3cc(N(C)C)c4ccccc4n3)CC2)c1OC` [compound 1176], with 3 (Class 3 The value of percent of control at 10^−7 M was more than 60% or the value of IC50 was more than 200 nM.); and `COc1ccc([N+](=O)[O-])cc1NC(=O)N[C@H]1CC[C@@H](Nc2nc3c(c(N(C)C)n2)CCCC3)CC1` [compound 1862], with 3 (Class 3 The value of percent of control at 10^−7 M was more than 60% or the value of IC50 was more than 200 nM.). As for `CN(C)c1cc(N[C@H]2CC[C@@H](CNC(=O)c3cccc(Cl)c3Cl)CC2)nc2ccccc12` [compound 224], under setting [3], the class is listed as 3 (Class 3 The value of percent of control at 10^−7 M was more than 60% or the value of IC50 was more than 200 nM.).

Take `COc1cccc([C@@H](C)NC(=O)[C@H]2CC[C@@H](Nc3ncc(C)c(N(C)C)n3)CC2)c1` [compound 2775, cis-4-{[4-(dimethylamino)-5-methylpyrimidin-2-yl]amino}-N-[(1R)-1-(3-methoxyphenyl)ethyl]cyclohexanecarboxamide]: the class under setting [2] is reported as 1 (Class 1: The value of percent of control at 10^−7 M was less than 40% or the value of IC50 was less than 50 nM.). With `Cc1cc(F)ccc1NC(=S)N[C@H]1CC[C@@H](Nc2nc3c(c(N(C)C)n2)CCCC3)CC1` [compound 1775], under setting [3], the class is 2 (Class 2: The value of percent of control at 10^−7 M was from 40% to 60% or the value of IC′50 was from 50 nM to 200 nM.). In the case of `CN(C)c1ccnc(N[C@H]2CC[C@@H](NC(=O)c3ccc(-c4cccc([N+](=O)[O-])c4)o3)CC2)n1` [compound 902, N-(cis-4-{[4-(dimethylamino)pyrimidin-2-yl]amino}cyclohexyl)-5-(3-nitrophenyl)-2-furamide], the class under setting [3] is 2 (Class 2: The value of percent of control at 10^−7 M was from 40% to 60% or the value of IC′50 was from 50 nM to 200 nM.). For `CN(C)c1nc(N[C@H]2CC[C@@H](NC(=O)c3cccs3)CC2)nc2c1CCCC2` [compound 488, N-(cis-4-{[4-(dimethylamino)-5,6,7,8-tetrahydroquinazolin-2-yl]amino}cyclohexyl)thiophene-2-carboxamide], the class under setting [1] is 3 (Class 3 The value of percent of control at 10^−7 M was more than 60% or the value of IC50 was more than 200 nM.). As for `CCc1cccc2c(C(CC(=O)c3ccc(C(C)(C)C)cc3)C(=O)N[C@H]3CC[C@@H](Nc4nccc(N(C)C)n4)CC3)c[nH]c12` (relative stereo) [compound 860], the class under setting [3] is 3 (Class 3 The value of percent of control at 10^−7 M was more than 60% or the value of IC50 was more than 200 nM.). On the same count and under the same terms, as for `CN(C)c1ccnc(N[C@H]2CC[C@@H](NC(=O)c3ccc(SC(F)(F)F)cc3)CC2)n1` [compound 349], the figure is 3 (Class 3 The value of percent of control at 10^−7 M was more than 60% or the value of IC50 was more than 200 nM.). As to `CN(C)c1nc(N[C@H]2CC[C@@H](CNC(=O)/C=C/c3ccccc3)CC2)nc2c1CCCC2` [compound 588], the class under setting [1] is listed as 3 (Class 3 The value of percent of control at 10^−7 M was more than 60% or the value of IC50 was more than 200 nM.). Take `Cc1cnc(N[C@H]2CC[C@@H](NC(=O)c3cccc(Br)c3)CC2)nc1N(C)C` [compound 2898, 3-bromo-N-(cis-4-{[4-(dimethylamino)-5-methylpyrimidin-2-yl]amino}cyclohexyl)benzamide]: the class under setting [2] was 1 (Class 1: The value of percent of control at 10^−7 M was less than 40% or the value of IC50 was less than 50 nM.). On to `CC(NC(=O)N[C@H]1CC[C@@H](Nc2nc3c(c(N(C)C)n2)CCCC3)CC1)c1ccccc1` (relative stereo) [compound 1706], for which the class under setting [6] was 3 (Class 3 The value of percent of control at 10^−7 M was more than 60% or the value of IC50 was more than 200 nM.).

For the compound `CN(C)c1nc(N[C@H]2CC[C@@H](NC(=O)c3c(F)c(F)c(F)c(F)c3F)CC2)nc2c1CCCC2` [compound 566], the class under setting [1] was 3 (Class 3 The value of percent of control at 10^−7 M was more than 60% or the value of IC50 was more than 200 nM.).
